Series [1] can be described thus: Kinetic solubility. The series is classed as physicochemical. Conditions: kinetic from dmso stock, n = 1 or average (n = 2-4). How it is done: Kinetic solubility was measured as described in Comput Aided Mol Des 2015, 29, 795.
Series [2] deals with T1, Prolyl endopeptidase, Prolyl Oligopeptidase (hPREP) (Homo sapiens, UniProt P48147).
T1 sequence (P48147 1-710): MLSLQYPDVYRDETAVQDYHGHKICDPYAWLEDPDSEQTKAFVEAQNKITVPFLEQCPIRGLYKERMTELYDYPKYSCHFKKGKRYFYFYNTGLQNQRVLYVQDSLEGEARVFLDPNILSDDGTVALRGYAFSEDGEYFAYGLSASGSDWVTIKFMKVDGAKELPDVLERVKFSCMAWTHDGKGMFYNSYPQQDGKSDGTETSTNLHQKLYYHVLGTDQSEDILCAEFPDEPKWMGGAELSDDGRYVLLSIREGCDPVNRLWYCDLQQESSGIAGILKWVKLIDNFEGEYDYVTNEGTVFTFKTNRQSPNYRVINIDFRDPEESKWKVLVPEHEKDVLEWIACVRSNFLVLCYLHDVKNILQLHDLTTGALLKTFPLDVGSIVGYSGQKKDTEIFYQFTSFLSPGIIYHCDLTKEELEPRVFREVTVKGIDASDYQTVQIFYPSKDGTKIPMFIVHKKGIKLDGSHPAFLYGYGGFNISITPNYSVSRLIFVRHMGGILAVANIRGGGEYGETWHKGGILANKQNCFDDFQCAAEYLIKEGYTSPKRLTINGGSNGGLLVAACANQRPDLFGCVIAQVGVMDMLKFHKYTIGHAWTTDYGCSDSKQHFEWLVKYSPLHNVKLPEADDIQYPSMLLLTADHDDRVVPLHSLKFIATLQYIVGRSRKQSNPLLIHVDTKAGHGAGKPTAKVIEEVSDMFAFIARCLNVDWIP
Nature of the series: biochemical.
Description: Compounds were tested in a biochemical inhibition assay using Prolyl endopeptidase, Prolyl Oligopeptidase (hPREP) enzyme at 0.6 nM FAC (R&D Systems, 4308-SE) and the substrate Z-Gly-Pro-amino-methylcoumarin (Bachem, I-1145) at 50 μM FAC. 384 Low volume black plates (Greiner #784076) were used. […] Plates were incubated for 15 min at rt in dark. 4 μL, 100 μM substrate solution (25 mM Tris HCl, 250 mM NaCl, 0.01% Triton X-100, 5 mM Glutathione, pH 7.5) was added to each well. Plates were centrifuged at 1000 rpm and incubated for 20 min at rt in dark. The plates were read on a PHERAstar® reader with excitation 340 nm and emission 460 nm. Data were analyzed in Genedata Screener®. IC50 values were determined by plotting % inhibition versus log compound concentration and using a one site dose response model.

The test system of series [3] is Rat Hepatocytes (rHep). Nature of the series: Metabolic stability in rat hepatocytes (rHep). Conditions: n = 1 or geometric mean (n = 2-3). It is filed as in vitro ADME. Here is the method:
Metabolic stability in rat hepatocytes was measured as described in J Comput Aided Mol Des 2015, 29, 795.

Series [4] is described as follows: Caco-2 AB intrinsic permeability. It is filed as in vitro ADME. Conditions: human, A to B intrinsic, n = 1 or average (n = 2), read-out: Caco2 AB Intrinsic Papp. How it is done:
Caco-2 cell permeability was measured as described in Mol Pharm 2017, 14, 1601.
(In general: Caco-2 monolayers are a common model of the intestinal barrier.)

For series [5], the target named is T2, hFAP (M39-A757) (Homo sapiens, UniProt Q12884).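 Further: surface plasmon resonance direct binding to hFAP amine-coupled on a sensor chip, rising compound concentrations by single cycle kinetics, Kd from global fit of interaction models.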
T2 sequence (Q12884 39-757): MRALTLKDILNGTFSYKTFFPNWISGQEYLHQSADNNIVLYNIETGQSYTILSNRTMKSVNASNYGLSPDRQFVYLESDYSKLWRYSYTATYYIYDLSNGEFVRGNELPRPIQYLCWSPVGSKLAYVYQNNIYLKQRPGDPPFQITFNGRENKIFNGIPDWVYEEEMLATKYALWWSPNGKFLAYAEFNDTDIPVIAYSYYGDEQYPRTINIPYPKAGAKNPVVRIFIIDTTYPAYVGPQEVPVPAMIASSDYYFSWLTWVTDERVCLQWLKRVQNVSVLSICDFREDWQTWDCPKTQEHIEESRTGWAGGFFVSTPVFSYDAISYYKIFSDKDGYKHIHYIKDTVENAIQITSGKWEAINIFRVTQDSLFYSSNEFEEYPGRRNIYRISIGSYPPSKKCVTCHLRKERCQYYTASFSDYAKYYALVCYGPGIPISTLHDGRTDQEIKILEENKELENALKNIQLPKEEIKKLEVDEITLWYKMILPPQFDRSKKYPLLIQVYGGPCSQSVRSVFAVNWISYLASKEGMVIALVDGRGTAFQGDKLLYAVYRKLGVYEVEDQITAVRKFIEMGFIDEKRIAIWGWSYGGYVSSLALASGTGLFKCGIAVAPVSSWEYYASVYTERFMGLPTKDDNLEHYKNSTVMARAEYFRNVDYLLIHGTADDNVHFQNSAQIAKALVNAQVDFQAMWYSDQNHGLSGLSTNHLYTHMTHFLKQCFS
Nature of the series: biochemical.
Description: Compounds were tested in a direct binding assay using 8K surface plasmon resonance biosensor (GE Healthcare) at 20° C. Immobilization of hFAP (M39-A757) on a CMD200M sensor chip (Xantec) was performed using standard amine coupling procedure in immobilization buffer (10 mM HEPES, 150 mM NaCl, 0.05% Tween20, pH 7.4). The surface was washed with 10 mM aq NaOH, 1M NaCl before being activated with EDC/NHS (GE Healthcare), followed by immobilization of hFAP (in 10 mM Acetate pH 5.0). Finally, the surface was deactivated by ethanolamine. Immobilization levels of hFAP were around 4000-6000 RU. The reference spot was treated as described, omitting the injection of hFAP. Compound concentration series were injected over the immobilized protein in increasing concentrations (2-500 nM) using single cycle kinetics in running buffer (20 mM TRIS, 150 mM NaCl, 0.05% Tween20, 1% DMSO, pH 7.4). Interaction models were fitted globally to the experimental traces, enabling determination of kon, koff and Kd.

Series [6] in a line: Metabolic stability in human liver microsomes (HLM). The series is classed as in vitro ADME. Conditions: n = 1 or average (n = 2-3). How it is done: Metabolic stability in HLM was measured as described in J Comput Aided Mol Des 2015, 29, 795.
A general note: Microsomes from liver hold many membrane-bound enzymes, among them those of drug oxidation.

Series [7] concerns the target T3, human dipeptidylpeptidase 9 (hDPP9) (Homo sapiens, UniProt Q86TI2).
T3 construct: purchased BPS Bioscience 80090
Nature of the series: hDPP9 inhibition assay. It is filed as biochemical. The settings on record: hDPP9 0.4 nM, Ala-Pro-amino-methylcoumarin 5 μM; n = 1. Here is the method: (§1) Compounds were tested in a biochemical inhibition assay using human dipeptidylpeptidase 9 (hDPP9) enzyme at 0.4 nM FAC (BPS Bioscience, #80090) and the substrate Ala-Pro-amino-methylcoumarin (BPS Bioscience #80305) at 5 μM FAC. The enzymatic reactions were conducted in duplicate at rt for 30 min in 50 μL DPP assay buffer (BPS Bioscience, #80300). Compound solutions (in DMSO) at 10 CR, 3 fold dilution series were prepared in assay buffer ten-fold higher than the final concentration, and 5 μL of the dilution was added to a 50 μL reaction so that the highest compound concentration was 100 μM FAC and the concentration of DMSO was 1% in all wells. The plates were read on a Tecan Infinite M1000 microplate reader with excitation 340 nm and emission 460 nm. Data were analyzed in Graph Pad Prism. […] Raw data signals were normalized using 1% DMSO as 0% control and no enzyme as 100% inhibitor control.

Series [8] has as its target T4, human dipeptidylpeptidase 7 (hDPP7) (Homo sapiens, UniProt Q9UHL4).
T4 construct: purchased BPS Bioscience 80070
Description: hDPP7 inhibition assay. The series is classed as biochemical. Conditions: hDPP7 15 nM, Ala-Pro-amino-methylcoumarin 5 μM; n = 1. Here is the method: Compounds were tested in a biochemical inhibition assay using human dipeptidylpeptidase 7 (hDPP7) enzyme at 15 nM FAC (BPS Bioscience, #80070) and the substrate Ala-Pro-amino-methylcoumarin (BPS Bioscience, #80305) at 5 μM FAC. The enzymatic reactions were conducted in duplicate at rt for 30 min in 50 μL DPP assay buffer (BPS Bioscience, #80300). Compound solutions (in DMSO) at 10 CR, 3 fold dilution series were prepared in assay buffer ten-fold higher than the final concentration, and 5 μL of the dilution was added to a 50 μL reaction so that the highest compound concentration was 100 μM FAC and the concentration of DMSO was 1% in all wells. The plates were read on a Tecan Infinite M1000 microplate reader with excitation 340 nm and emission 460 nm. Data were analyzed in Graph Pad Prism. […] Raw data signals were normalized using 1% DMSO as 0% control and no enzyme as 100% inhibitor control.

The target in series [9] is T5, human dipeptidylpeptidase 8 (hDPP8) (Homo sapiens, UniProt Q6V1X1).
T5 construct: purchased BPS Bioscience 80080
T5 sequence (Q6V1X1 whole entry): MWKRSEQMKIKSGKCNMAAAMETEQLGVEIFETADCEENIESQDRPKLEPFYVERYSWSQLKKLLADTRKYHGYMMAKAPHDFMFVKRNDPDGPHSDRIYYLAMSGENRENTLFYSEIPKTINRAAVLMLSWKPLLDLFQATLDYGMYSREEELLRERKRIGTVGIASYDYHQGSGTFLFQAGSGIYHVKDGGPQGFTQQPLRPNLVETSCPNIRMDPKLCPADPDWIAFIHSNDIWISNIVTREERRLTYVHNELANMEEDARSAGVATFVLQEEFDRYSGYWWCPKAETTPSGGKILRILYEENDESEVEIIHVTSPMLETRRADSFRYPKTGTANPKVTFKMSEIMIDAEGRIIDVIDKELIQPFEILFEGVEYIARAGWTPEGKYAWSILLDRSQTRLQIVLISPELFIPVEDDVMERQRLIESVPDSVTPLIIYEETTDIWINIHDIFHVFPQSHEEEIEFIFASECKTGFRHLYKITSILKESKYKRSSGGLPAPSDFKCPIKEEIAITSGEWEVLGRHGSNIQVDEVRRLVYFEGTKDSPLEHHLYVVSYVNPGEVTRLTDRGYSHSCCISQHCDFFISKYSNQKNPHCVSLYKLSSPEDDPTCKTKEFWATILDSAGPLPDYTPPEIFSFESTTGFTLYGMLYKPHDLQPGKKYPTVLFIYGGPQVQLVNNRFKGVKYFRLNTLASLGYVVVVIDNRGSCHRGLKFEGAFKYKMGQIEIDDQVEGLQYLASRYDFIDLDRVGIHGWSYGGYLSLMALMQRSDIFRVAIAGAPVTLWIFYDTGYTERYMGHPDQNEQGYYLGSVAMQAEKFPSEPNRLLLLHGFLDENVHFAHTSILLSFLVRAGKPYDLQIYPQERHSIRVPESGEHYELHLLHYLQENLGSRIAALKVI
Description: hDPP8 inhibition assay. It is filed as biochemical. The settings on record: hDPP8 1.5 nM, Ala-Pro-amino-methylcoumarin 5 μM; n = 1. Here is the method: as §1, with “8 (hDPP8)” for “9 (hDPP9)”, “1.5” for “0.4”, “#80080)” for “#80090)”

T3 sequence (Q86TI2 whole entry): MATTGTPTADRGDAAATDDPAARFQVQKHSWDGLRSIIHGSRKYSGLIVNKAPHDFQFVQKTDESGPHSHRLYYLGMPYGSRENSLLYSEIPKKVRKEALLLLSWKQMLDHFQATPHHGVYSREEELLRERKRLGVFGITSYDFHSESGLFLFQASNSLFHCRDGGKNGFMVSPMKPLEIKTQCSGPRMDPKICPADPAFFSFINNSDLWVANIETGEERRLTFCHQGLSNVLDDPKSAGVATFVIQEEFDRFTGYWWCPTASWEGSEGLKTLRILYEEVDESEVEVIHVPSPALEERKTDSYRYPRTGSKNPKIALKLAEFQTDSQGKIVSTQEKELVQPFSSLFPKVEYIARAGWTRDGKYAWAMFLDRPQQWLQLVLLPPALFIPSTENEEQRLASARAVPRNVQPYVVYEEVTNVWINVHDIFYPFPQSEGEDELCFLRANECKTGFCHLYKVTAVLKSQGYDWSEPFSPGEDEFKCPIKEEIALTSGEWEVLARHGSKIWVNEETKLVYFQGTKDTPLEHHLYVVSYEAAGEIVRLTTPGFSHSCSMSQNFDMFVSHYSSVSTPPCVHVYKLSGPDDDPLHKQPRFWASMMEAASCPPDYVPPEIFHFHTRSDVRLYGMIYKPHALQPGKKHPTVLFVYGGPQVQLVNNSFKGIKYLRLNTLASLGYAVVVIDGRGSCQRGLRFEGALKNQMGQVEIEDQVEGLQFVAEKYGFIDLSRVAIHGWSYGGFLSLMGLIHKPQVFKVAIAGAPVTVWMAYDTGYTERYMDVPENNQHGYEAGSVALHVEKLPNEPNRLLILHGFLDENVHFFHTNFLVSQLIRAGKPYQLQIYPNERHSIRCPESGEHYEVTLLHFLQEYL

The solubility is how much of the substance goes into solution per volume. The low end stands for a poorly soluble substance, the high end for a readily soluble substance. The term IC50 denotes the concentration that inhibits the measured activity by half. A lower IC50 goes with greater potency in that assay. What is called Kd is the concentration at which binding is half-saturated. Read a low Kd as higher affinity. As usually defined, the microsomal CLint is a measure of how fast metabolising enzymes remove a compound, apart from limits set by blood flow. High values mean rapid turnover, low ones slow turnover. Regarding `COCCOc1ccc2nccc(C(=O)NCC(=O)N3CSC[C@H]3C#N)c2c1` [Example 4, (R)—N-(2-(4-Cyanothiazolidin-3-yl)-2-oxoethyl)-6-(2-methoxyethoxy)quinoline-4-carboxamide], the solubility in [1] is greater than 1000 µM. In series [2], this compound yielded an IC50 of 0.57 µM. The “rHeps CLint” value in [3] was less than 1 μL/min/1E6. For the same compound, the Papp A→B in series [4] worked out at 10 ×10⁻⁶ cm/s. This compound also had a Kd in series [5] of 57 pM. In [6], this compound showed a microsomal CLint of less than 3 µL/min/mg.

Consider `N#C[C@@H]1CSCN1C(=O)CNC(=O)c1ccnc2ccc(OC3CCOCC3)cc12` [Example 6, (R)—N-(2-(4-Cyanothiazolidin-3-yl)-2-oxoethyl)-6-((tetrahydro-2H-pyran-4-yl)oxy)quinoline-4-carboxamide], for which the IC50 in [7] was 2.9 µM; in [8], greater than 100 µM; in [2], 1.2 µM; in series [9], 6.4 µM.

The record behind these values is patent publication US20260070899A1, “N-(2-(4-CYANOTHIAZOLIDIN-3-YL)-2-OXOETHYL)-QUINOLINE-4-CARBOXAMIDES” (AstraZeneca AB, priority 2022, published 2026).
